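Protocol summary: plate cells (96-well), add compound at 5 concentrations, incubate 48 h, interpolate endpoints linearly. GI50: concentration for 50% inhibition of growth. At the TGI there is no net growth.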
Key:
Assay in all cases: NCI anticancer screen, dose series, 48 h
HCC-2998 colon = tested on: HCC-2998 colon
HCT-116 colon = tested on: HCT-116 colon
HCT-15 colon = tested on: HCT-15 colon
HT29 colon = tested on: HT29 colon
K-562 leukemia = tested on: K-562 leukemia
SF-268 CNS = tested on: SF-268 CNS
SW-620 colon = tested on: SW-620 colon
UACC-62 melanoma = tested on: UACC-62 melanoma
PC-3 prostate = tested on: PC-3 prostate
T-47D breast = tested on: T-47D breast

SMILES | TGI (HCC-2998 colon) [µM] | TGI (HCT-116 colon) [µM] | TGI (HCT-15 colon) [µM] | TGI (HT29 colon) [µM] | TGI (K-562 leukemia) [µM] | TGI (SF-268 CNS) [µM] | TGI (SW-620 colon) [µM] | TGI (UACC-62 melanoma) [µM] | GI50 (HCT-116 colon) [µM] | GI50 (HCT-15 colon) [µM] | GI50 (HT29 colon) [µM] | GI50 (K-562 leukemia) [µM] | GI50 (PC-3 prostate) [µM] | TGI (PC-3 prostate) [µM] | GI50 (SF-268 CNS) [µM] | GI50 (SW-620 colon) [µM] | GI50 (T-47D breast) [µM] | TGI (T-47D breast) [µM] | GI50 (UACC-62 melanoma) [µM] | GI50 (HCC-2998 colon) [µM]
CNC(=O)OCc1cc2ccncc2c2c1[nH]c1ccccc12 | > 100 | > 100 | > 100 | > 100 | > 100 | > 41.8 | > 100 | > 100 | – | – | – | – | – | – | – | – | – | – | – | –
CC1OC(n2cc(I)c(=O)[nH]c2=O)C=CC1=O (stereo not drawn) | 31.5 | 24.9 | 32.3 | 30.6 | 18 | 27.1 | 26.8 | 31.2 | – | – | – | – | – | – | – | – | – | – | – | –
COc1ccc2cc(C(=O)/C=C/c3ccco3)ccc2c1 | – | 35.6 | > 100 | > 100 | > 100 | 45.5 | > 100 | > 100 | 1.29 | 25.6 | 42.5 | 38 | 47.4 | > 100 | 20 | 35 | > 100 | > 100 | 26.6 | –
O=C(O)C1CCCCC1C(=O)Nc1nc2ccccc2[nH]1 (stereo not drawn) | – | > 100 | > 100 | > 100 | – | > 100 | > 100 | > 100 | – | – | – | – | – | > 100 | – | – | – | > 100 | – | –
O=C(O)CP(=O)(c1ccccc1)c1ccccc1.O=C(O)CP(=O)(c1ccccc1)c1ccccc1.[Cd] | – | 47.3 | 22.9 | 37.3 | 36.8 | > 100 | 42.6 | 6.31 | 20 | 9.21 | 18 | 15.1 | 18 | 35.1 | 37.3 | 19.6 | 24 | 73.3 | 2.2 | –
COc1cc2c3c(c1OCc1ccccc1)NCCC3NCC2 (stereo not drawn) | > 100 | > 100 | > 100 | > 100 | > 100 | > 100 | > 100 | > 100 | – | – | – | – | – | – | – | – | – | – | – | –
Cc1[nH]c2ccccc2c1C1=CC(=O)C=CC1=O | 29.4 | 24.8 | 27.1 | 40.1 | – | 27.4 | 23 | 23.4 | 10.5 | 10.9 | 13.6 | – | 12.7 | 30 | 13.1 | 4.55 | 2.65 | 5.75 | 10.4 | 15.7
NC(=O)OCC(COc1ccc(Cl)cc1)OC(=O)c1cc([N+](=O)[O-])cc([N+](=O)[O-])c1 (stereo not drawn) | > 100 | > 100 | > 100 | > 100 | > 100 | > 100 | 27.6 | > 100 | – | – | – | – | – | – | – | – | – | – | – | –
O=C(NCc1cccs1)OC1CC2CCC1C2 (stereo not drawn) | – | > 100 | > 100 | > 100 | > 100 | > 100 | > 100 | > 100 | – | – | – | – | – | > 100 | – | – | – | > 100 | – | –
